Assay results as given in patent US20110201569A1, “Methods For Treating Myocardial Disorders” (priority 2009, published 2011).
Entries after “also recorded” stand apart in the source; their conditions may differ.

Assays:
Format in all cases: in vivo, mouse
[1] = system: total matrix metalloproteinase (MMP-2+MMP-9); assay: Total MMP mRNA (MMP-2+MMP-9) calculated from qRT-PCR; conditions: Example 1; TAC vs sham within treated groups; three days after surgery
Procedure: (§1) 11 to 13 week old male C57BL/6 mice were purchased from Charles River (Germany). Mice were housed in individually ventilated pathogen-free cages with free access to water and standard rodent chow. The animals were handled according to the principles of laboratory animal care (NIH publication No. 85-23, revised 1996), and animal procedures were approved by the local committee for animal care.
(§2) The first injection was performed 5 min prior to TAC or sham-operation procedure (described below) and repeated 4, 8, 12, 24, 36, 48 and 60 hrs after surgery. […]
(§3) Quantitative real-time PCR analysis was completed. […] RNA was dissolved in 100 μl of RNase-free water, and concentration was determined photometrically (absorbance at 260 nm) before storage at −80° C. […]
(§4) Real-time PCR was performed according to the manufacturer's protocol. […] Each sample was measured in triplicate wells and underwent 40 cycles of amplification on an ABI PRISM® Sequence Detection System (Applied Biosystems). CT values were determined with SDS Software 2.2 (Applied Biosystems) and relative quotients (RQ) were calculated following the ΔΔCT method (RQ target gene/GAPDH).
(§5) Statistics were calculated using Prism 4.05 (GraphPad Software Inc., CA, USA). All values are expressed as mean (M)±SEM. […]

TNF-α = assay: qRT-PCR of TNF-α mRNA in left ventricle after TAC/sham; conditions: Example 1, TAC, three days after surgery, M ± SEM
Procedure: as §1, §2, §3, §4, §5

Tristetraprolin (TTP) = assay: qRT-PCR of TTP mRNA in left ventricle after TAC/sham; conditions: Example 1, three days after surgery
Procedure: as §1, §2, §3, §4, §5

IL-1β [2] = assay: ELISA of IL-1β protein in myocardial tissue after TAC/sham
Procedure: as §1
The first injection was performed 5 min prior to TAC or sham-operation procedure (described below) and repeated 4, 8, 12, 24, 36, 48 and 60 hrs after surgery. Animals were randomly assigned into two groups, receiving either a tetrasodium salt of the compound of formula 1 (hereinafter “Eritoran tetrasodium”) or placebo. […]
For ELISA assays, proteins from snap-frozen myocardial tissue were isolated and cytosolic and nuclear proteins separated according to the manufacturer's protocol (NE-PER®, Nuclear and Cytoplasmic Extraction Kit, Pierce®, Thermo Scientific, IL, USA). Myocardial protein levels in the cytoplasmic fraction were detected with Quantikine mouse IL-1β as well as IL-6 ELISA (R&D Systems, […], USA) as described in the manufacturer's protocol. […] Protein concentration was determined by B CA protein assay (Pierce®).
as §5

[3] = system: brain natriuretic peptide (BNP); assay: qRT-PCR of BNP mRNA in left ventricle after TAC/sham; conditions: Example 2; TAC treated vs TAC-placebo
Procedure: as §1, §2, §3, §4, §5

IL-1β [4] = assay: qRT-PCR of IL-1β mRNA in left ventricle after TAC/sham; conditions: Example 2; TAC treated vs TAC-placebo
Procedure: as §1, §2, §3, §4, §5

| Structure (SMILES) | total MMP mRNA level (MMP-2+MMP-9) [1] | TNF mRNA level (TNF-α) | TTP/TNFα ratio (Tristetraprolin (TTP); TAC) | TTP/TNFα ratio (Tristetraprolin (TTP); sham operation) | IL-1β protein expression (ELISA) (IL-1β [2]; Example 1, TAC, three days after surgery) | BNP mRNA expression [3] | IL-1β mRNA expression (IL-1β [4]) | IL-1β protein expression (IL-1β [2]; Example 2, TAC treated group) |
| --- | --- | --- | --- | --- | --- | --- | --- | --- |
| CCCCCC/C=C\CCCCCCCCCC(=O)N[C@H]1[C@H](OC[C@H]2O[C@H](OP(=O)([O-])[O-])[C@H](NC(=O)CC(=O)CCCCCCCCCCC)[C@@H](OCCCCCCCCCC)[C@@H]2O)O[C@H](COC)[C@@H](OP(=O)([O-])[O-])[C@@H]1OCC[C@@H](CCCCCCC)OC.[Na+].[Na+].[Na+].[Na+] [Eritoran tetrasodium] | remained unchanged by aortic banding | 1.32±0.19 | 0.61±0.33 | 1.40±0.33 | did not display significant increases; also recorded: lower levels of pro-inflammatory cytokines compared to TAC placebo hearts (not significant) |  |  |  |
| CCCCCC/C=C\CCCCCCCCCC(=O)N[C@H]1[C@H](OC[C@H]2O[C@H](OP(=O)(O)O)[C@H](NC(=O)CC(=O)CCCCCCCCCCC)[C@@H](OCCCCCCCCCC)[C@@H]2O)O[C@H](COC)[C@@H](OP(=O)(O)O)[C@@H]1OCC[C@@H](CCCCCCC)OC [compound of formula (I), α-D-Glucopyranose, 3-O-decyl-2-deoxy-6-O-[2-deoxy-3-O-[(3R)-3-methoxydecyl)-6-O-methyl-2-[[(−11Z)-1-oxo-11-octadecenyl)amino]-4-O-phosphono-β-D-glucopyranosyl]-2-[(1,3-dioxotetradecyl)amino]-1-(dihydrogen phosphate)] |  |  |  |  |  | elevated in TAC-placebo mice compared to sham and the TAC groups treated | lower | reduced |
